Experimental data: patent US6706663B2, “Herbicidal 3-heterocyclic substituted benzisothiazole and benzisoxazole compounds” (Wyeth, priority 2000, dated 2004)

Tests used:
[1] = tested on: SETVI (Setaria viridis); experiment: Postemergence herbicidal evaluation; assay type: in vivo, (L.) Beau; conditions: for SETVI herbicidal rating: postemergence
Procedure, shortened: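 Visual injury score (0-9: stand, vigor, malformation, size, chlorosis, overall appearance vs untreated control) taken four to five weeks post-spray. Two-week-old seedlings received about 0.0040 to 1.000 kg/ha active compound in acetone/water with 0.5% TWEEN 20.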

[2] = tested on: ORYSAT (Rice, Tebonnet); experiment: Postemergence herbicidal evaluation; assay type: in vivo, Oryza sativa, (L.) Tebonnet; conditions: for ORYSAT herbicidal rating: postemergence
Procedure, shortened: (§1)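 Visual 0–9 injury scores versus control plants, covering stand, vigour, malformation, size, chlorosis and general appearance, taken four to five weeks post-spray and averaged over replicate tests. Plants were sprayed at roughly two weeks old and held on greenhouse benches.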

[3] = tested on: TRZAWR (Wheat, Winter, cv Riband); experiment: Postemergence herbicidal evaluation; assay type: in vivo, Triticum aestivum; conditions: for TRZAWR herbicidal rating: postemergence
Procedure, shortened: as §1

[4] = tested on: ABUTH (Abutilon theophrasti); experiment: Preemergence herbicidal evaluation; assay type: in vivo, Medic.; conditions: rated 4-5 weeks after treatment
[5] = tested on: ECHCG (Echinochloa crus-galli); experiment: Preemergence herbicidal evaluation; assay type: in vivo, (L.) Beau; conditions: rated 4-5 weeks after treatment
Procedure, shortened: (§2)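 Visual 0-9 rating versus untreated control, taken four to five weeks post-treatment, scoring stand, vigor, malformation, size, chlorosis and overall appearance. Compound applied as aqueous acetone spray to freshly seeded soil cups, then kept under standard greenhouse care.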

[6] = tested on: SETVI (Setaria viridis); experiment: Preemergence herbicidal evaluation; assay type: in vivo, (L.) Beau; conditions: rated 4-5 weeks after treatment
Procedure, shortened: as §2

[7] = tested on: MOOVA (Monochoria vaginalis); experiment: Flooded paddy, preemergence weed control; assay type: in vivo, Presl.; conditions: rated 3-4 weeks after treatment, 0-9 rating scale
Procedure, shortened: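 Under paddy conditions, seeds or vegetative propagules go into the top 0.5 cm of silt loam; the soil is then flooded to 1.5–3 cm and kept so. Treated pots stay in a greenhouse; response is rated 0-9 visually versus control.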

[8] = tested on: ORYSAT (Rice, Tebonnet); experiment: Flooded paddy, post-transplant rice tolerance; assay type: in vivo, Oryza sativa, (L.) Tebonnet; conditions: flooded paddy, post-transplant rice, rated 3-4 weeks after treatment, 0-9 rating scale
Procedure, shortened: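 Seedlings aged ten days are transplanted in pairs into undrained pots of silt loam, which are then flooded to a depth of 1.5 to 3 cm. After herbicide application the pots are kept in a greenhouse with the flood maintained. Plants are rated 0-9 by visual comparison with controls.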

SMILES: CC(C)C1COC(c2nsc3ccc(-n4c(=O)cc(C(F)(F)F)n(C)c4=O)cc23)=N1 (centres unmarked) [Compound 74, 3-[3-(4-isopropyl-2-oxazolin-2-yl)-1,2-benzisothiazol-5-yl]-1-methyl-6-(trifluoromethyl)uracil]
- SETVI herbicidal rating ([1]; rate 0.0320 kg/ha): 2.0
- SETVI herbicidal rating ([1]; rate 0.0620 kg/ha): 2.0
- ORYSAT herbicidal rating ([2]; rate 0.0320 kg/ha): 3.5
- ORYSAT herbicidal rating ([2]; rate 0.0620 kg/ha): 4.0
- TRZAWR herbicidal rating ([3]; rate 0.0320 kg/ha): 3.5
- TRZAWR herbicidal rating ([3]; rate 0.0620 kg/ha): 4.0
- Preemergence herbicidal rating ABUTH ([4]; Rate 0.0620 kg/ha): 3.0
- Preemergence herbicidal rating ABUTH ([4]; Rate 0.1250 kg/ha): 7.0
- Preemergence herbicidal rating ABUTH ([4]; Rate 0.2500 kg/ha): 9.0
- Preemergence herbicidal rating ECHCG ([5]; Rate 0.0620 kg/ha): 0.0
- Preemergence herbicidal rating ECHCG ([5]; Rate 0.1250 kg/ha): 2.0
- Preemergence herbicidal rating ECHCG ([5]; Rate 0.2500 kg/ha): 6.0
- Preemergence herbicidal rating SETVI ([6]; Rate 0.0620 kg/ha): 0.0
- Preemergence herbicidal rating SETVI ([6]; Rate 0.1250 kg/ha): 2.0
- Preemergence herbicidal rating SETVI ([6]; Rate 0.2500 kg/ha): 8.0
- herbicidal rating, MOOVA ([7]; rate 0.0080 kg/ha): 4.5
- herbicidal rating, MOOVA ([7]; rate 0.0320 kg/ha): 9.0
- herbicidal rating, MOOVA ([7]; rate 0.1250 kg/ha): 9.0
- herbicidal rating, ORYSAT (rice tolerance) ([8]; rate 0.0080 kg/ha): 1.5
- herbicidal rating, ORYSAT (rice tolerance) ([8]; rate 0.0320 kg/ha): 4.0
- herbicidal rating, ORYSAT (rice tolerance) ([8]; rate 0.1250 kg/ha): 6.0

SMILES: COc1ccsc1-c1nsc2ccc(-n3c(=O)cc(C(F)(F)F)n(C)c3=O)cc12 [Compound 10, 3-[3-(3-methoxy-2-thienyl)-1,2-benzisothiazol-5-yl]-1-methyl-6-(trifluoromethyl)uracil]
- Postemergence herbicidal rating, SETVI ([1]; rate 0.0320 kg/ha): 0.0
- Postemergence herbicidal rating, SETVI ([1]; rate 0.0620 kg/ha): 0.5
- Postemergence herbicidal rating, SETVI ([1]; rate 0.1250 kg/ha): 0.0
- Postemergence herbicidal rating, ORYSAT ([2]; rate 0.0320 kg/ha): 1.3
- Postemergence herbicidal rating, ORYSAT ([2]; rate 0.0620 kg/ha): 1.8
- Postemergence herbicidal rating, ORYSAT ([2]; rate 0.1250 kg/ha): 3.0
- Postemergence herbicidal rating, TRZAWR ([3]; rate 0.0320 kg/ha): 2.5
- Postemergence herbicidal rating, TRZAWR ([3]; rate 0.0620 kg/ha): 2.8
- Postemergence herbicidal rating, TRZAWR ([3]; rate 0.1250 kg/ha): 4.0
- ABUTH preemergence herbicidal rating ([4]; Rate 0.0620 kg/ha): 7.0
- ABUTH preemergence herbicidal rating ([4]; Rate 0.1250 kg/ha): 9.0
- ABUTH preemergence herbicidal rating ([4]; Rate 0.2500 kg/ha): 9.0
- ECHCG preemergence herbicidal rating ([5]; Rate 0.0620 kg/ha): 0.5
- ECHCG preemergence herbicidal rating ([5]; Rate 0.1250 kg/ha): 5.0
- ECHCG preemergence herbicidal rating ([5]; Rate 0.2500 kg/ha): 9.0
- SETVI preemergence herbicidal rating ([6]; Rate 0.0620 kg/ha): 7.5
- SETVI preemergence herbicidal rating ([6]; Rate 0.1250 kg/ha): 9.0
- SETVI preemergence herbicidal rating ([6]; Rate 0.2500 kg/ha): 9.0
- herbicidal rating, MOOVA ([7]; rate 0.0320 kg/ha): 9.0
- herbicidal rating, MOOVA ([7]; rate 0.1250 kg/ha): 9.0
- herbicidal rating, ORYSAT (rice tolerance) ([8]; rate 0.0320 kg/ha): 0.0
- herbicidal rating, ORYSAT (rice tolerance) ([8]; rate 0.1250 kg/ha): 4.0

SMILES: Cn1ccnc1-c1nsc2ccc(-n3c(=O)cc(C(F)(F)F)n(C)c3=O)cc12 [Compound 5, 1-methyl-3-[3-(1-methylimidazol-2-yl)-1,2-benzisothiazol-5-yl]-6-(trifluoromethyl)uracil]
- Postemergence herbicidal rating, SETVI ([1]; rate 0.0320 kg/ha): 0.0
- Postemergence herbicidal rating, SETVI ([1]; rate 0.0620 kg/ha): 1.0
- Postemergence herbicidal rating, ORYSAT ([2]; rate 0.0320 kg/ha): 2.0
- Postemergence herbicidal rating, ORYSAT ([2]; rate 0.0620 kg/ha): 3.0
- Postemergence herbicidal rating, TRZAWR ([3]; rate 0.0320 kg/ha): 2.5
- Postemergence herbicidal rating, TRZAWR ([3]; rate 0.0620 kg/ha): 3.5
- ABUTH preemergence herbicidal rating ([4]; Rate 0.0620 kg/ha): 7.0
- ABUTH preemergence herbicidal rating ([4]; Rate 0.1250 kg/ha): 9.0
- ABUTH preemergence herbicidal rating ([4]; Rate 0.2500 kg/ha): 9.0
- ECHCG preemergence herbicidal rating ([5]; Rate 0.0620 kg/ha): 2.5
- ECHCG preemergence herbicidal rating ([5]; Rate 0.1250 kg/ha): 8.0
- ECHCG preemergence herbicidal rating ([5]; Rate 0.2500 kg/ha): 9.0
- SETVI preemergence herbicidal rating ([6]; Rate 0.0620 kg/ha): 9.0
- SETVI preemergence herbicidal rating ([6]; Rate 0.1250 kg/ha): 9.0
- SETVI preemergence herbicidal rating ([6]; Rate 0.2500 kg/ha): 9.0
- herbicidal rating, MOOVA ([7]; rate 0.0320 kg/ha): 2.0
- herbicidal rating, MOOVA ([7]; rate 0.1250 kg/ha): 9.0
- herbicidal rating, ORYSAT (rice tolerance) ([8]; rate 0.0320 kg/ha): 2.0
- herbicidal rating, ORYSAT (rice tolerance) ([8]; rate 0.1250 kg/ha): 3.0
